Source: patent US11207285B2, “Diabetes treatment regimens using alpha, alpha-substituted long-chain amphipathic carboxylates” (SYNDROMEX LTD., priority 2016, dated 2021)

Key:
Forkhead box O1 (FoxO1) = Forkhead box O1 (FoxO1) (Homo sapiens, UniProt Q12778); assay: transcriptional activity of FoxO1
HepG2 human liver cells = assay: inhibition of glucose production in HepG2 cells; type: cell-based
Method: (§1) The compound 2,2,15,15-tetramethylhexadecane-1,16-dioic acid (also designated M16αα), and also the compounds […] (M18αα) and 2,2,19,19-tetramethyl-[…]-1,20-dioic acid (M20αα), were tested for their effect on glucose uptake and production, and the expression of glucose- and lipid-related genes in in vitro models. […] Inhibition of glucose production was tested in HepG2 human liver cells.

[1] = test system: C57BL/KsJ (db/db) Spontaneous T2D mice; assay: glucose lowering effect in db/db mice; type: in vivo; details: once daily oral 30 mg/kg
Method: In addition, the glucose lowering effect of the above three compounds M16αα, M18αα and M20αα was tested in C57BL/KsJ (db/db) Spontaneous T2D mice, which serve as a model for T2D. These animals are characterized by hyperphagia, obesity, hyperglycemia and insulin resistance. The mice were treated once daily by oral administration of the tested compound at 30 mg/kg.

[2] = test system: AMP-activated protein kinase (AMPK); assay: modulation of AMPK activity
[3] = test system: cultured human HepG2 liver cells; assay: inhibition of lipoprotein production in HepG2 cells; type: cell-based
half-life in dogs = details: dog, in vivo, read-out: half-life (T1/2) (converted)
Source text: (§2) The half-life (T1/2) of Medica compounds in humans differs considerably from their half-life in model animals. […] This difference in half-life could not be expected, and is of considerable significance when designing a new treatment protocol for humans.

[4] = target: Signal transducer and activator of transcription 3 (STAT3) (Homo sapiens, UniProt P40763); assay: transcriptional activity of STAT3
Chain of Signal transducer and activator of transcription 3 (STAT3) (P40763 whole entry, species assumed): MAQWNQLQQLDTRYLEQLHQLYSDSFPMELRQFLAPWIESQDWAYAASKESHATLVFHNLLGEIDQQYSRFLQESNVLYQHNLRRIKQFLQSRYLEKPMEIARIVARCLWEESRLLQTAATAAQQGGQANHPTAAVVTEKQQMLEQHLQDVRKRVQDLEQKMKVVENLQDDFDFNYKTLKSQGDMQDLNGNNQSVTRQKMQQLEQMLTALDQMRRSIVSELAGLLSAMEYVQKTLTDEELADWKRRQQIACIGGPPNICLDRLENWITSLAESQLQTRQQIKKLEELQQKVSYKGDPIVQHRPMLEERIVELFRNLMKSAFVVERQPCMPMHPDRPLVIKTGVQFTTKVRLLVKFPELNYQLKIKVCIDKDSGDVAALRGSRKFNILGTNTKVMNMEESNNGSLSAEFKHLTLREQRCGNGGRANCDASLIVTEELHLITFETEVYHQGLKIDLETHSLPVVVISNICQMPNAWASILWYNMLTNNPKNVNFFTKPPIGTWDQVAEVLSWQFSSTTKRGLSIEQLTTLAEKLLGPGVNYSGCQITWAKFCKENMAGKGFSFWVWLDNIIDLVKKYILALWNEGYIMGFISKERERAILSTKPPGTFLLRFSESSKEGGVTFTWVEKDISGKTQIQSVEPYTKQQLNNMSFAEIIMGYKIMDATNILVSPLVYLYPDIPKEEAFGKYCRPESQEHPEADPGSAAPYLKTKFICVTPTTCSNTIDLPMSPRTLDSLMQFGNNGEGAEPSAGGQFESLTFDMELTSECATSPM

[5] = target: mammalian target of rapamycin (mTORC1) (Homo sapiens, UniProt P42345); assay: modulation of mTORC1 activity
[6] = test system: Sterol response element binding protein 1 & 2 (SREBP); assay: transcriptional activity of SREBP
[7] = test system: genes that control liver gluconeogenesis and lipid synthesis; assay: expression of glucose- and lipid-related genes in in vitro models; type: cell-based
Method: as §1

[8] = 4-week M16αα study in T2D patients, trough plasma levels; type: in vivo, human; details: Cohort 1 patients, 40 mg once daily oral, 28-day dosing period
Method: Pre-dose blood samples to determine trough levels of M16αα were collected in lithium heparin tubes at the following dosing days: 1, 8, 15, 28, and EOS visit. Plasma M16αα concentrations have been presently processed for Cohort 1 patients only. […] Calculated PK parameters: Pre-dose Css.
Plasma concentrations of M16αα are determined by a validated LC/MS method. The lower and upper limits of quantitation for M16αα concentrations are 100 ng/mL and 5000 ng/mL, respectively. The assay is linear from 0.1-5 μg/mL. Dilution extends the range to 100 μg/mL

[9] = target: T1, Hepatocyte nuclear factor 4-alpha (HNF4α) (Homo sapiens, UniProt P41235); assay: transcriptional activity of HNF4α
T1 sequence (P41235 1-474): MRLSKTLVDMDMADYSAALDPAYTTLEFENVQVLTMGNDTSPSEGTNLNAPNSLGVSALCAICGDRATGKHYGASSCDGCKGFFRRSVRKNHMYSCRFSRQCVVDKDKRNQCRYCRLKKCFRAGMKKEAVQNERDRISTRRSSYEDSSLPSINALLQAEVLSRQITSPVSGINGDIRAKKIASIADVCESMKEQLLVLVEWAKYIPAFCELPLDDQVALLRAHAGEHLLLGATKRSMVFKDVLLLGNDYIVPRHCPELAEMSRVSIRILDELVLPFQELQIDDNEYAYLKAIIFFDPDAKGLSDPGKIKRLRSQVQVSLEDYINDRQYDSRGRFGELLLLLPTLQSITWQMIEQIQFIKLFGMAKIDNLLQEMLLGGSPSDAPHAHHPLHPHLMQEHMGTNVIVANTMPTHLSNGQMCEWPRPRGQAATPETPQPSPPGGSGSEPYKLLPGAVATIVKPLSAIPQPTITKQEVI

[10] = test system: fully differentiated 3T3L1 adipocytes; assay: glucose uptake in 3T3L1 adipocytes; type: cell-based; details: insulin as positive control
Method: as §1

[11] = test system: Type 2 Diabetes Mellitus (T2D) patients; assay: 4-week M16αα study in T2D patients, safety and tolerability; type: in vivo, human; details: 40 mg/day oral, 28 days
Method: T2D patients, non-treated or treated with SoC antidiabetic drugs as outlined below, were screened for eligibility (inclusion/exclusion according to criteria detailed below), followed by being randomly allocated to receive once daily either add-on M16αα (40 mg M16αα plus 130 mg microcrystalline cellulose in gelatin capsules) or add-on placebo (130 mg microcrystalline cellulose in gelatin capsules), in addition to the SoC anti-diabetic treatment they have been receiving regularly. One patient was not under SoC anti-diabetic drug treatment. Sixteen (16) patients were randomized to M16αα treatment and 3 patients were randomized to placebo treatment. Patients randomized to M16αα treatment were dosed for 28 days with add-on M16αα in double-blinded manner, followed by 4-week recovery period using add-on placebo in a single-blinded manner. Patients randomized to placebo treatment were dosed for 28 days with add-on placebo in double-blinded manner.
The primary safety endpoint was the frequency, severity, and duration of adverse events (AEs), including clinically significant laboratory abnormalities after administration of M16αα.
Safety was evaluated on the basis of the following assessments: Adverse events (AEs)—continuous (starting from informed consent signature until end of study); vital signs; 12-lead ECG; physical examination; safety laboratory evaluations (blood and urine). […]

animal models = assay: plasma lipid lowering in animal models; type: in vivo
half-life in humans = type: in vivo
Source text: as §2

[12] = test system: animal models for T2D (e.g., rodents maintained on high-fat diet); assay: insulin sensitization, glucose lowering and energy expenditure in animal models for T2D; type: in vivo
[13] = test system: animal models for T2D (e.g., db/db rats, rodents maintained on high-fat diet); assay: as above; type: in vivo

Chain of Forkhead box O1 (FoxO1) (Q12778 whole entry, species assumed): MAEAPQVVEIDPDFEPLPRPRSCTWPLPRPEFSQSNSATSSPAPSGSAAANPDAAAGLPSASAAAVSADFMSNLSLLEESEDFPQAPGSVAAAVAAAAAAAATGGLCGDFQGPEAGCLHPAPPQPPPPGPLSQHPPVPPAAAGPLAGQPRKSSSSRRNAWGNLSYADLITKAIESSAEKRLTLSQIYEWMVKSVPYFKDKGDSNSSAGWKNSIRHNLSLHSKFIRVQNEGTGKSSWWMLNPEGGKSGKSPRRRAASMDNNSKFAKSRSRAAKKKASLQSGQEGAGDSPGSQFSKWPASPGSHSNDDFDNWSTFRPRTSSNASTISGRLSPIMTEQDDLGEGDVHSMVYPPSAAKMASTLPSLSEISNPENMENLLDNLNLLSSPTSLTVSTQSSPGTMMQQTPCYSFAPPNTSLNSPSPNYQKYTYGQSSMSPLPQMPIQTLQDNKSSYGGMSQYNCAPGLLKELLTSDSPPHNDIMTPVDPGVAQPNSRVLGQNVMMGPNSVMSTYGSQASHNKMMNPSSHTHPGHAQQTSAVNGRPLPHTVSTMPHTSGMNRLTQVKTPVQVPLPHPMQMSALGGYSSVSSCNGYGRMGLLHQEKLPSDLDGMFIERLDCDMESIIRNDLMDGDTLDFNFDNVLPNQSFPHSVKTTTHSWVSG

transcriptional activity of FoxO1 (Forkhead box O1 (FoxO1)): suppressing | AMPK activity [2]: activating | half-life (half-life in dogs): 65 h | transcriptional activity of STAT3 [4]: suppressing | mTORC1 activity [5]: suppressing | transcriptional activity of SREBP [6]: suppressing | transcriptional activity of HNF4α [9]: suppressing | half-life (T1/2) (half-life in humans): 30 to 80 h | half-life (half-life in humans; human, in vivo, as stated in PK evaluation, read-out: half-life): 30 to 80 h
SMILES: CC(C)(CCCCCCCCCCCCC(C)(C)C(=O)O)C(=O)O [M16αα, 2,2,15,15-tetramethyl-hexadecane-1,16-dioic acid]
hepatic glucose production (HepG2 human liver cells): significant or full inhibition | blood glucose levels [1]: significantly decrease | serum insulin levels [1]: significantly decrease | serum triglyceride levels [1]: significantly decrease | lipoprotein production [3]: significant or full inhibition | expression of genes that control liver gluconeogenesis and lipid synthesis [7]: effective in inhibiting | trough M16αα plasma concentrations [8]: increased progressively throughout the 28-day dosing period | glucose uptake [10]: increase glucose uptake | serious adverse events (SAE) [11]: No serious adverse events (SAE) were recorded | tolerability and safety [11]: well tolerated and safe | plasma LDL-cholesterol (animal models): statin-like efficacy in lowering plasma LDL-cholesterol | plasma triglycerides (animal models): robust decrease of plasma triglycerides | energy expenditure [12]: increased energy expenditure | insulin-sensitizing and glucose-lowering efficacy [13]: potent insulin-sensitizing and glucose-lowering efficacy
